Marks after values point to notes of the source that are not given here.
Legend:
Experiment in all cases: FFA sulfoconjugation assay (N6-MF-A formation with adenosine as scavenger)
Type in all cases: biochemical
hSULT1C3 = target: T1, hSULT1C3 (Homo sapiens, UniProt Q6IMI6)
T1 construct: made in house; host or cells: Salmonella typhimurium TA1538 (cytosolic fraction, not purified)
How it was run: (§1)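 Cytosols from S. typhimurium TA1538 expressing individual SULTs are incubated at 37 °C for 20 min with FFA plus 10 mM adenosine. Reactions are quenched in methanol containing [15N5]N6-MF-A, and supernatants are analysed by UPLC-MS/MS. Spontaneous, SULT-independent adduct formation is corrected using SULT-deficient cytosols.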

hSULT4A1 = target: T2, hSULT4A1 (Homo sapiens, UniProt Q9BR01)
T2 construct: made in house; host or cells: Salmonella typhimurium TA1538 (cytosolic fraction, not purified)
T2 sequence (Q9BR01 1-284): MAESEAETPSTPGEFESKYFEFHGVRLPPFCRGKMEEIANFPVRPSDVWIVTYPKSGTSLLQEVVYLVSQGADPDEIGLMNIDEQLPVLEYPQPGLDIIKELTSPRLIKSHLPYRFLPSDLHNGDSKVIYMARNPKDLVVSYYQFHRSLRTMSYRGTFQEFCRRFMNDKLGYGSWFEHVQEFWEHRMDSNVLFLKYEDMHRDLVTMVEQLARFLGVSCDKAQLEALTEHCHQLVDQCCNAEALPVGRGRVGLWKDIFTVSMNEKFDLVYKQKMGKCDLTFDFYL
How it was run: as §1

mSult2b1b = target: T3, mSult2b1b (Mus musculus, UniProt O35400)
T3 construct: made in house; host or cells: Salmonella typhimurium TA1538 (cytosolic fraction, enzyme not purified)
T3 sequence (O35400 1-338): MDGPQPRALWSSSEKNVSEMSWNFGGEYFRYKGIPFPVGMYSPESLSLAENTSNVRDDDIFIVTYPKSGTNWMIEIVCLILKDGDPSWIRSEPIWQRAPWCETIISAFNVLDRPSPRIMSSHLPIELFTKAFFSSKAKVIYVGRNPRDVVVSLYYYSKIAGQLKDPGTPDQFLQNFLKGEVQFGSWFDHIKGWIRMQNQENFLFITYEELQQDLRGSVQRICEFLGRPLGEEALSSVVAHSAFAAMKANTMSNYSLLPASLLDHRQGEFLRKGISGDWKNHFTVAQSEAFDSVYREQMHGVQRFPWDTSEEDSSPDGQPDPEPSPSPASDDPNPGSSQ
How it was run: as §1

rSult1c2 = target: T4, rSult1c2 (Rattus norvegicus, UniProt Q9WUW8)
T4 construct: made in house; host or cells: Salmonella typhimurium TA1538 (cytosolic fraction, enzyme not purified)
How it was run: as §1

T4 sequence (Q9WUW8 whole entry): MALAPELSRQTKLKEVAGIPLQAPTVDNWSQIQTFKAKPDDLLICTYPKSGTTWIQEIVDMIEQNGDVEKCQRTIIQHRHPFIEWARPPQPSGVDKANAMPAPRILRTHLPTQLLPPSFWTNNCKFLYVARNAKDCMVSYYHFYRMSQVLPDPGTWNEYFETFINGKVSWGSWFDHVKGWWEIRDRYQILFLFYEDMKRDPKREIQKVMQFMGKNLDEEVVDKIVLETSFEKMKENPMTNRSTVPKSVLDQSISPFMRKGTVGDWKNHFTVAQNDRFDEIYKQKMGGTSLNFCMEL
T1 sequence (Q6IMI6 whole entry): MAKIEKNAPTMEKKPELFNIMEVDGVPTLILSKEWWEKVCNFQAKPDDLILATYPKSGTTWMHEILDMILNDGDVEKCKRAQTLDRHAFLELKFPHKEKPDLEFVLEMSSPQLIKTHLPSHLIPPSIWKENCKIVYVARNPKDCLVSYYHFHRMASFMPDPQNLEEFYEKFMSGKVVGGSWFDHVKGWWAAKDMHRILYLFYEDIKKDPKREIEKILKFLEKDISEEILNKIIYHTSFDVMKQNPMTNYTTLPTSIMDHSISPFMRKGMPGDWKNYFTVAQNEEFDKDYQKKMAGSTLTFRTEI

OCc1ccco1 [FFA, furfuryl alcohol]
Rate of N6-MF-A formation (hSULT1C3; 0.1 mM FFA): <18 fmol N ^6-MF-A/mg/min | Rate of N6-MF-A formation (hSULT1C3; 1 mM FFA): 61.8 ± 0.3 fmol N ^6-MF-A/mg/min | Rate of N6-MF-A formation (corr.) (hSULT1C3; 1 mM FFA, corrected by SULT concentration reported in Meinl et al. [2006]): 3,090 ± 10^b fmol N ^6-MF-A/mg/min | Rate of N6-MF-A formation (hSULT1C3; 10 mM FFA): 248 ± 3 fmol N ^6-MF-A/mg/min | Rate of N6-MF-A formation (hSULT4A1; 0.1 mM FFA): <18 fmol N ^6-MF-A/mg/min | Rate of N6-MF-A formation (hSULT4A1; 1 mM FFA): <20 fmol N ^6-MF-A/mg/min | Rate of N6-MF-A formation (hSULT4A1; 10 mM FFA): <44 fmol N ^6-MF-A/mg/min | Rate of N6-MF-A formation (mSult2b1b; 0.1 mM FFA): <18 fmol N ^6-MF-A/mg/min | Rate of N6-MF-A formation (mSult2b1b; 1 mM FFA): <20 fmol N ^6-MF-A/mg/min | Rate of N6-MF-A formation (mSult2b1b; 10 mM FFA): <44 fmol N ^6-MF-A/mg/min | Rate of N6-MF-A formation (rSult1c2; 0.1 mM FFA): <18 fmol N ^6-MF-A/mg/min | Rate of N6-MF-A formation (rSult1c2; 1 mM FFA): <20 fmol N ^6-MF-A/mg/min | Rate of N6-MF-A formation (rSult1c2; 10 mM FFA): <44 fmol N ^6-MF-A/mg/min
